From patent US20250154140A1 (Sunnybrook Research Institute, priority 2022, published 2025)

Biological target: BAX (Homo sapiens, UniProt Q07812)
Test: SMAC mCherry assay in permeabilized Bax-/- Bak-/- BMK cells with recombinant Bax and cBid
Type: cell-based, mouse
Parameters: made in house; host or cells: Escherichia coli BL21-AI
Details: 20 nM Bax, 0.5 nM cBid, 60-80 minutes; read-out: SMAC mCherry I.D IC50
Description: Bax−/− Bak−/− double-knockout Baby Mouse Kidney (BMK) cells stably expressing a SMAC-(1-56)-mCherry fusion protein were cultured in DMEM complete (DMEM supplemented with 10% FBS and 1× Penicillin-Streptomycin) in 10 cm diameter tissue-culture treated dishes at 37° C. in a humidified incubator with 5% CO2 in air. Cells were washed with PBS, incubated with 1×Trypsin and resuspended in DMEM complete. Detached cells were seeded at 6000 cells per well in 50 uL DMEM complete into a 384 well Perkin-Elmer Phenoplate, incubated at room-temperature for 30 minutes followed by incubation overnight at 37° C. in a humidified incubator with 5% CO2 in air. Recombinant Bax and recombinant cBid were quickly thawed between fingers and 25 mM compound stocks in DMSO were thawed at room temperature. An 8 point titration curve of each compound was created in a 384-well source plate containing Trehalose-Hepes Buffer (THB, 135 mM trehalose, 50 mM KCl, 10 mM HEPES-KOH pH 7.4, 5 mM succinate, 20 uM EDTA, 20 uM EGTA, 0.1% BSA) supplemented with 1/1000 DRAQ5, 0.0025% digitonin, 20 nM Bax and 0.5 nM cBid. The source plate also contained control wells with THB supplemented with 1/1000 DRAQ5, 0.0025% digitonin plus 20 nM Bax (negative control) or 20 nM Bax and 0.5 nM cBid (positive control). Using the Vantage automated liquid handler, DMEM complete media was removed from the cells growing in the 384 well Phenoplate. The cells were washed 2× with 30 uL THB and then 25 uL from the 384 well source plate containing THB proteins and compounds was transferred to the cells growing in the 384 well plate. The cells were incubated for 60-80 minutes at 37 C in a humidified incubator with 5% CO2 in air and then imaged on the Opera Phenix Microscope. Two image channels were acquired: 1) DRAQ5 channel, to visualize nuclei and aid in cell segmentation and 2) SMAC-mCherry channel to visualize mitochondria that retain SMAC-mCherry. Data was processed using PerkinElmer Harmony software where the cells were segmented using the DRAQ5 channel and the mean intensity of SMAC-mCherry for each cell was calculated. The single-cell lobject level data was exported and then analyzed using R code. A per cell SMAC-mCherry intensity cutoff was calculated as 1.33 times the mean per cell SMAC-mCherry intensity of the THB+Bax control. Cells with a SMAC-mCherry intensity below or equal to the cutoff were scored as “released”. The percentage SMAC-mCherry release was calculated as the number of cells scored as “released” divided by the total amount of cells multiplied by 100. Dose-response curves were fit to a 4-parameter log-logistic model to determine the IC50 value for each compound.

Chain of BAX (Q07812 whole entry): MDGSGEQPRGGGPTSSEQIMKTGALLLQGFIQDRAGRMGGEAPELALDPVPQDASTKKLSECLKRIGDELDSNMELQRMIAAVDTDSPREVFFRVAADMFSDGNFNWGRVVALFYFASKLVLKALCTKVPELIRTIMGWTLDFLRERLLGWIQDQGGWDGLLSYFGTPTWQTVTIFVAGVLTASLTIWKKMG

IC50 [µM] | Compound
0.1 to 10 | COc1cc2ccnc(Nc3ccc(F)c(Cl)c3)c2cc1NC(=O)CCCCN1CCCCC1 [Compound 1-2, N-(1-((3-chloro-4-fluorophenyl)amino)-6-methoxyisoquinolin-7-yl)-5-(piperidin-1-yl)pentanamide]
11 to 50 | COc1cc2ccnc(Nc3ccc(F)c(Cl)c3)c2cc1NC(=O)CCN1CCCCC1 [Compound 1-3, N-(1-((3-chloro-4-fluorophenyl)amino)-6-methoxyisoquinolin-7-yl)-3-(piperidin-1-yl)propanamide]
0.1 to 10 | COc1cc2ccnc(Nc3ccc(F)c(Cl)c3)c2cc1NC(=O)CCCN1CCCC1 [Compound 1-4]
0.1 to 10 | COc1cc2ccnc(Nc3ccc(F)c(Cl)c3)c2cc1NC(=O)CCCN1C[C@@H](C)O[C@@H](C)C1 [Compound 1-5, N-(1-((3-chloro-4-fluorophenyl)amino)-6-methoxyisoquinolin-7-yl)-4-((2S,6R)-2,6-dimethylmorpholino)butanamide]
11 to 50 | COc1cc2ccnc(Nc3ccc(F)c(Cl)c3)c2cc1NC(=O)CCCN1CCOCC1 [Compound 1-6, N-(1-((3-chloro-4-fluorophenyl)amino)-6-methoxyisoquinolin-7-yl)-4-morpholinobutanamide]
0.1 to 10 | COc1cc2ccnc(Nc3ccc(F)c(Cl)c3)c2cc1NC(=O)CCCN1CCN(C)CC1 [Compound 1-7, N-(1-((3-chloro-4-fluorophenyl)amino)-6-methoxyisoquinolin-7-yl)-4-(4-methylpiperazin-1-yl)butanamide]
0.1 to 10 | COc1cc2ccnc(Nc3ccc(F)c(Cl)c3)c2cc1NC(=O)CCCN1CCC(F)(F)CC1 [Compound 1-8, N-(1-((3-chloro-4-fluorophenyl)amino)-6-methoxyisoquinolin-7-yl)-4-(4,4-difluoropiperidin-1-yl)butanamide]
11 to 50 | COc1cc2ccnc(Nc3cccc(F)c3)c2cc1NC(=O)CCCN1CCCCC1 [Compound 1-9, N-(1-((3-fluorophenyl)amino)-6-methoxyisoquinolin-7-yl)-4-(piperidin-1-yl)butanamide]
> 100 | COc1cccc(Nc2nccc3cc(OC)c(NC(=O)CCCN4CCCCC4)cc23)c1 [Compound 1-10, N-(6-methoxy-1-((3-methoxyphenyl)amino)isoquinolin-7-yl)-4-(piperidin-1-yl)butanamide]
51 to 100 | COc1cc2ccnc(Nc3cccc(C)c3)c2cc1NC(=O)CCCN1CCCCC1 [Compound 1-11, N-(6-methoxy-1-(m-tolylamino)isoquinolin-7-yl)-4-(piperidin-1-yl)butanamide]
51 to 100 | COc1cc2ccnc(Nc3ccc(F)cc3)c2cc1NC(=O)CCCN1CCCCC1 [Compound 1-12, N-(1-((4-fluorophenyl)amino)-6-methoxyisoquinolin-7-yl)-4-(piperidin-1-yl)butanamide]
11 to 50 | COc1cc2ccnc(Nc3cccc(Cl)c3)c2cc1NC(=O)CCCN1CCCCC1 [Compound 1-13, N-(1-((3-chlorophenyl)amino)-6-methoxyisoquinolin-7-yl)-4-(piperidin-1-yl)butanamide]
51 to 100 | COc1cc2ccnc(Nc3ccc(C)cc3)c2cc1NC(=O)CCCN1CCCCC1 [Compound 1-14, N-(6-methoxy-1-(p-tolylamino)isoquinolin-7-yl)-4-(piperidin-1-yl)butanamide]
51 to 100 | COc1cc2ccnc(Nc3ccccc3)c2cc1NC(=O)CCCN1CCCCC1 [Compound 1-15, N-(6-methoxy-1-(phenylamino)isoquinoin-l7-yl)-4-(piperidin-1-yl)butanamide]
0.1 to 10 | COc1cc2ccnc(Nc3ccc(F)c(C(F)(F)F)c3)c2cc1NC(=O)CCCN1CCCCC1 [Compound 1-16, N-(1-((4-fluoro-3-(trifluoromethyl)phenyl)amino)-6-methoxyisoquinolin-7-yl)-4-(piperidin-1-yl)butanamide]
11 to 50 | Cc1cc2ccnc(Nc3ccc(F)c(Cl)c3)c2cc1NC(=O)CCCN1CCCCC1 [Compound 1-17, N-(1-((3-chloro-4-fluorophenyl)amino)-6-methylisoquinolin-7-yl)-4-(piperidin-1-yl)butanamide]

IC50 [µM] | Compound
0.1 to 10 | O=C(CCCN1CCCCC1)Nc1ccc2ccnc(Nc3ccc(F)c(Cl)c3)c2c1 [Compound 1-18, N-(1-((3-chloro-4-fluorophenyl)amino)isoquinolin-7-yl)-4-(piperidin-1-yl)butanamide]
0.1 to 10 | COc1cc2ccnc(Nc3ccc(C)c(Cl)c3)c2cc1NC(=O)CCCN1CCCCC1 [Compound 1-21, N-(1-((3-chloro-4-methylphenyl)amino)-6-methoxyisoquinolin-7-yl)-4-(piperidin-1-yl)butanamide]
11 to 50 | COc1cc(Nc2nccc3cc(OC)c(NC(=O)CCCN4CCCCC4)cc23)ccc1F [Compound 1-22, N-(1-((4-fluoro-3-methoxyphenyl)amino)-6-methoxyisoquinolin-7-yl)-4-(piperidin-1-yl)butanamide]
0.1 to 10 | COc1cc2ccnc(Nc3cc(Cl)c(F)c(Cl)c3)c2cc1NC(=O)CCCN1CCCCC1 [Compound 1-23, N-(1-((3,5-dichloro-4-fluorophenyl)amino)-6-methoxyisoquinolin-7-yl)-4-(piperidin-1-yl)butanamide]
11 to 50 | COc1ccc(Nc2nccc3cc(OC)c(NC(=O)CCCN4CCCCC4)cc23)cc1Cl [Compound 1-24, N-(1-((3-chloro-4-methoxyphenyl)amino)-6-methoxyisoquinolin-7-yl)-4-(piperidin-1-yl)butanamide]
0.1 to 10 | COc1cc2ccnc(Nc3cc(F)cc(Cl)c3)c2cc1NC(=O)CCCN1CCCCC1 [Compound 1-25, N-(1-((3-chloro-5-fluorophenyl)amino)-6-methoxyisoquinolin-7-yl)-4-(piperidin-1-yl)butanamide]
0.1 to 10 | O=C(CCCN1CCCCC1)Nc1cc2c(Nc3ccc(F)c(Cl)c3)nccc2cc1Cl [Compound 1-26, N-(6-chloro-1-((3-chloro-4-fluorophenyl)amino)isoquinolin-7-yl)-4-(piperidin-1-yl)butanamide]
0.1 to 10 | COc1cc2ccnc(Nc3ccc(Cl)c(Cl)c3)c2cc1NC(=O)CCCN1CCCCC1 [Compound 1-27, N-(1-((3,4-dichlorophenyl)amino)-6-methoxyisoquinolin-7-yl)-4-(piperidin-1-yl)butanamide]
11 to 50 | CCc1cc(Nc2nccc3cc(OC)c(NC(=O)CCCN4CCCCC4)cc23)ccc1F [Compound 1-28, N-(1-((3-ethyl-4-fluorophenyl)amino)-6-methoxyisoquinolin-7-yl)-4-(piperidin-1-yl)butanamide]
0.1 to 10 | COc1cc(NC(=O)CCCN2CCCCC2)cc2c(Nc3ccc(F)c(Cl)c3)nccc12 [Compound 1-29, N-(1-((3-chloro-4-fluorophenyl)amino)-5-methoxyisoquinolin-7-yl)-4-(piperidin-1-yl)butanamide]
11 to 50 | COc1cc2ccnc(Nc3ccc(F)c(C(C)C)c3)c2cc1NC(=O)CCCN1CCCCC1 [Compound 1-30, N-(1-((4-fluoro-3-isopropylphenyl)amino)-6-methoxyisoquinolin-7-yl)-4-(piperidin-1-yl)butanamide]
11 to 50 | COc1cc2ccnc(Nc3ccc(F)c(Cl)c3)c2cc1N(C)C(=O)CCCN1CCCCC1 [Compound 1-31, N-(1-((3-chloro-4-fluorophenyl)amino)-6-methoxyisoquinolin-7-yl)-N-methyl-4-(piperidin-1-yl)butanamide]
0.1 to 10 | Cc1ccc(Nc2nccc3ccc(NC(=O)CCCN4CCCCC4)cc23)cc1Cl [Compound 1-32, N-(1-((3-chloro-4-methylphenyl)amino)isoquinolin-7-yl)-4-(piperidin-1-yl)butanamide]
0.1 to 10 | O=C(CCCN1CCCCC1)Nc1ccc2ccnc(Nc3ccc(F)c(C(F)(F)F)c3)c2c1 [Compound 1-33, N-(1-((4-fluoro-3-(trifluoromethyl)phenyl)amino)isoquinolin-7-yl)-4-(piperidin-1-yl)butanamide]
0.1 to 10 | O=C(CCCN1CCCCC1)Nc1ccc2ccnc(Nc3ccc(Cl)c(Cl)c3F)c2c1 [Compound 1-34, N-(1-((3,4-dichloro-2-fluorophenyl)amino)isoquinolin-7-yl)-4-(piperidin-1-yl)butanamide]
0.1 to 10 | O=C(CCCN1CCCCC1)Nc1ccc2ccnc(Nc3ccc(Cl)c(Cl)c3)c2c1 [Compound 1-35, N-(1-((3,4-dichlorophenyl)amino)isoquinolin-7-yl)-4-(piperidin-1-yl)butanamide]
